# Peptide text beside a SMILES is read from it.
# Target: Neuronal acetylcholine receptor; alpha9/alpha10 (Homo sapiens, UniProt Q9GZZ6+Q9UGM1)
# Experiment: Inhibition of human alpha9/alpha10 nACHR (1:1) expressed in Xenopus laevis oocyte assessed as inhibition of ACh induced channel current measured for 2 to 5 days at -80 mV holding potential by two electrode voltage clamp method
# Sequence of Neuronal acetylcholine receptor; alpha9/alpha10 (Q9UGM1 whole entry): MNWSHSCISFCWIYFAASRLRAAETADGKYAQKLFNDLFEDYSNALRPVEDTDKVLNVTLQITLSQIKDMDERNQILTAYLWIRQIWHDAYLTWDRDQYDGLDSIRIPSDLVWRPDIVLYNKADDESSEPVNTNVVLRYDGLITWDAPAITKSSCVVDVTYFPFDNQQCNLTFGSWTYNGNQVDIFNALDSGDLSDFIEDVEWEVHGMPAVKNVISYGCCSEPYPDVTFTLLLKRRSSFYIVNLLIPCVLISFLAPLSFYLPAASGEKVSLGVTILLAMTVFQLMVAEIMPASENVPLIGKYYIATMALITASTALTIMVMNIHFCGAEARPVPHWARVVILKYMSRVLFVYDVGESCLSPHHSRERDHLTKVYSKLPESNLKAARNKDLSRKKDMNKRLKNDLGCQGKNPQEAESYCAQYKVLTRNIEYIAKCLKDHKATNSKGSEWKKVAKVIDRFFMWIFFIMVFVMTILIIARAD
# Sequence of Neuronal acetylcholine receptor; alpha9/alpha10 (Q9GZZ6 whole entry): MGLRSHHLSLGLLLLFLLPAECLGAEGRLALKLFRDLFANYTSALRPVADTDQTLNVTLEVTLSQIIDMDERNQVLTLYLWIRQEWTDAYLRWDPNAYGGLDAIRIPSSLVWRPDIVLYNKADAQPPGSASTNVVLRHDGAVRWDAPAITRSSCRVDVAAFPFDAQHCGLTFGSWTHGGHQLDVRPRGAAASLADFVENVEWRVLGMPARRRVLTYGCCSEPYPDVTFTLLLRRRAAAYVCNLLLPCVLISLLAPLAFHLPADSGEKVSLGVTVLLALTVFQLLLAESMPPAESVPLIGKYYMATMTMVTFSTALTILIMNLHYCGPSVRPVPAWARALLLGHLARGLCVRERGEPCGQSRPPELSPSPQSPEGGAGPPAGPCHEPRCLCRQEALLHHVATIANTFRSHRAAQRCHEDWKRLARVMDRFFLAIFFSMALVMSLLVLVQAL
smiles,measurement,value
"CC(C)[C@@H]1NC(=O)[C@H](CO)NC(=O)[C@@H]2CSSC[C@H](NC(=O)CN)C(=O)N[C@@H](CSSC[C@@H](C(N)=O)NC(=O)[C@H](CCCCN)NC(=O)[C@H](CC(N)=O)NC(=O)[C@@H]3CCCN3C(=O)[C@H](Cc3ncc[nH]3)NC(=O)[C@H](CC(=O)O)NC1=O)C(=O)N[C@@H](CO)C(=O)N[C@@H](Cc1ncc[nH]1)C(=O)N1CCC[C@H]1C(=O)N[C@@H](C)C(=O)N2 (HELM PEPTIDE1{G.C.C.S.[O=C([C@H](Cc1ncc[nH]1)N[*:1])[*:2]].P.A.C.S.V.D.[O=C([C@H](Cc1ncc[nH]1)N[*:1])[*:2]].P.N.K.C.[am]}$PEPTIDE1,PEPTIDE1,2:R3-8:R3|PEPTIDE1,PEPTIDE1,3:R3-16:R3$$$V2.0)",IC50,22.2 µM

# — ChEMBL document CHEMBL4219259, “Molecular Determinants Conferring the Stoichiometric-Dependent Activity of α-Conotoxins at the Human α9α10 Nicotinic Acetylcholine Receptor Subtype” (J Med Chem, 2018)
